In experiment [1] the target is T1, GII ProPol (Norovirus Hu/GII.4/Sydney/NSW0514/2012/AU, UniProt K4L8Z7, E1189A). Description: biochemical. Set-up: species or system Human norovirus GII.4 Sydney 2012.
Experiment [2] deals with T2, GI Pol (Southampton virus, UniProt Q04544). Description: De novo polymerase inhibition assay (PicoGreen dsRNA formation). The format is biochemical.
The test system of another experiment is norovirus Pro. Set-up: method as in PMID 32321856, PMID 38005879. The settings on record: read-out: IC50 protease activity; cited from earlier work.
The target in experiment [3] is T3, GII Pol (Norovirus Hu/GII.4/Sydney/NSW0514/2012/AU, UniProt K4L8Z7). In words: biochemical. The following applies: for IC50: read-out: IC50 polymerase activity.
A further experiment has as its system GII Pro. In words: FRET protease assay. The settings on record: normalized to 0-µM inhibitor control. Format: biochemical, Human norovirus GII.4 Sydney 2012. From the text: (§1) A fluorescent resonance energy transfer assay was used to measure the activities of Pro and ProPol as described in reference ([46]). The peptide substrate, 5(6)-carboxyfluorescein (FAM)-[…]-Dabcyl utilized in reactions, was based on the NS1-2/NS3 cleavage site of HuNV GII.4 Sydney 2012, and the scissile bond is shown in bold.

Experiment [4] addresses T4, GI ProPol (Southampton virus, UniProt Q04544, E1280A). In words: Steady-state kinetics of de novo polymerase activity (PicoGreen). The settings on record: GI ProPol 250 nM, (95% CI). The format is biochemical, Human norovirus GI Southampton. The protocol:
(§2) De novo polymerase activity was measured by monitoring the formation of dsRNA from a single-stranded homopolymeric RNA template using PicoGreen as described previously ([69]). Optimal pH (range of 7.0–8.0), concentrations of MnCl2 (2.5 mM), and DTT (5 mM) for HuNV were previously established ([17], [52]). Concentrations of NaCl in the final polymerase reaction were maintained below 10 mM ([17]).
(§3) Standard reactions were performed in 25 µL, containing 5 mM DTT, 2.5 mM MnCl2, 20 ng/µL RNA template, 0.5 mM NTP in 20 mM Tris pH 7.5. Reactions were initiated with the indicated concentration of enzyme and allowed to proceed for a set period at 37°C before being terminated with 10 mM EDTA. PicoGreen (1:350 dilution) (Invitrogen, Waltham, MA, USA) was added to bind the dsRNA, and fluorescence was measured on a Varioskan Flash (Thermo Fisher Scientific, Waltham, MA, USA) plate reader with excitation at 480 nm and emission at 520 nm.
(§4) Kinetics of nucleotide incorporation by polymerase proteins was analyzed by titrating NTP concentration under standard reaction conditions for the linear time period of the enzyme. Kinetics of RNA template utilization was analyzed in the same manner but with titration of the homopolymeric template. The velocity of the reaction against substrate concentration was plotted, and the kinetic parameters were determined by non-linear regression using the Michaelis-Menten model in GraphPad Prism version 9.2.0 (La Jolla, CA, USA). All enzyme kinetics was performed with three independent preparations of protein, with triplicate wells for each replicate.

For experiment [5], the target named is T2, GI Pol. The description is as above. The format is biochemical, Human norovirus GI Southampton. The settings on record: GI Pol 75 nM, (95% CI). The procedure: as §2, §3, §4
The target in experiment [6] is T3, GII Pol. The description is as above. The format is biochemical, Human norovirus GII.4 Sydney 2012. The following applies: (95% CI). The procedure: as §2, §3, §4
Experiment [7] deals with T1, GII ProPol. The description is as above. The settings on record: (95% CI). The format is biochemical, Human norovirus GII.4 Sydney 2012. The procedure:
as §2, §3, §4

The target in experiment [8] is T1, GII ProPol. In words: FRET protease assay. Format: biochemical, Human norovirus GII.4 Sydney 2012.
From the text: as §1

Experiment [9] deals with T1, GII ProPol. In words: Steady-state kinetics of de novo polymerase activity (PicoGreen). The format is biochemical, Human norovirus GII.4 Sydney 2012.
Experiment [10] has as its target T4, GI ProPol. Description: De novo polymerase inhibition assay (PicoGreen dsRNA formation). Format: biochemical, Human norovirus GI Southampton.
For experiment [11], the system named is GII Pol. Also on record: method as in PMID 24316032, PMID 31804593, PMID 30584800. The settings on record: read-out: IC50 polymerase; cited from earlier work.
Setting [12] is: 0, 3 and 30 µM, poly(C) template.
The mark [13] stands for this setting: poly(C) 0 to 80 ng/µL, 0.5 mM GTP.
[14] abbreviates: GII Pol 35 nM, poly(C) 0 to 80 ng/µL, 0.5 mM GTP.
[15] abbreviates: GII ProPol 35 nM, poly(C) 0 to 80 ng/µL, 0.5 mM GTP.
The mark [16] stands for this setting: GII ProPol 2 µM, poly(A) 0 to 400 ng/µL, 0.5 mM UTP, 60 min.
Setting [17] is: GII Pol 2 µM, poly(U) 0 to 160 ng/µL, 0.5 mM ATP, 20 min.
The mark [18] stands for this setting: GII ProPol 1 µM, ATP 0 to 2000 µM, 80 ng/µL poly(U), (95% CI).
Where [19] appears, read: GTP 0 to 1,000 µM, 20 ng/µL poly(C).

Structures can show the parent of a compound that is named as a salt. Where two headings read alike, the source gives them in different places. Marks after values point to notes of the source that are not given here.

Turning to `O=C[C@H](C[C@@H]1CCNC1=O)NC(=O)[C@H](CC1CCCCC1)NC(=O)c1cc2ccccc2[nH]1` [NV-004], on GII ProPol [1] (read-out: polymerase activity compared with 0-µM control), the remaining activity at 30 µM worked out at 76%. Besides, the “polymerase activity in the presence of inhibitor” value on GI Pol [2] (setting [12]) and at GII Pol [3] (setting [12]) was “no decrease in polymerase activity” in each case. In the experiment on norovirus Pro, the IC50 was 0.37 µM.
For `O=C(Nc1cccc(C(=O)Nc2ccc(S(=O)(=O)O)c3cc(S(=O)(=O)O)cc(S(=O)(=O)O)c23)c1)Nc1cccc(C(=O)Nc2ccc(S(=O)(=O)O)c3cc(S(=O)(=O)O)cc(S(=O)(=O)O)c23)c1` [NF023, 8,8′-[carbonylbis(imino-3,1-phenylenecarbonylimino)]bis-1,3,5-naphthalene-trisulphonic acid], the “protease activity in the presence of inhibitor” value with GII Pro is “not affected”.
As to poly(C), the “Km poly(C)” value is reported as 15.6 (12.0–20.2)^a ng/μL at GI ProPol [4] (poly(C) 0 to 80 ng/µL, 0.5 mM GTP, 10 min 37°C); 6.5 (5.2–8.0) ng/μL at GI Pol [5] (setting [13]); 8.8 (6.9–11.3) ng/μL on GII Pol [6] (setting [14]); 5.9 (4.7–7.3) ng/μL on GII ProPol [7] (setting [15]). The “kcat poly(C)” value is recorded as 0.4 (0.35–0.42) s^−1 on GI ProPol [4] (setting [13]), 1.4 (1.3–1.6) s^−1 at GI Pol [5] (setting [13]), 1.4 (1.3–1.5) s^−1 at GII Pol [6] (setting [14]) and 1.1 (1.0–1.2) s^−1 at GII ProPol [7] (setting [15]).
With `O=c1ccn([C@@H]2O[C@H](COP(=O)(O)OP(=O)(O)OP(=O)(O)O)[C@@H](O)[C@H]2O)c(=O)[nH]1` [UTP], at GII ProPol [7] (GII ProPol 2 µM, nucleotide 0 to 2000 µM, 20 ng/µL poly(A), 60 min), the “kcat UTP” value is recorded as 0.36 (0.32–0.41) s^−1. The Km at GII ProPol [7] (GII ProPol 2 µM, nucleotide 0 to 2000 µM, 20 ng/µL poly(A), 60 min, read-out: Km UTP) came to 438 µM.
Regarding `Nc1ncnc2c([C@@H]3N[C@H](COP(=O)(O)OP(=O)(O)OP(=O)(O)O)[C@@H](O)[C@H]3O)c[nH]c12` [Gal-TP, galidesivir triphosphate], the IC50 against GII ProPol [1] turned out to be 247 µM; at GII Pol [3] (GII Pol 2 µM, 8 ng/µL poly(U) template, 400 µM ATP), 154 µM. In addition, on GII ProPol [1] (poly(U) template), the “fold difference between the IC50 values (GII ProPol vs GII Pol)” value was 1.6 fold. Besides, the figures for the “protease activity in the presence of inhibitor” value with GII Pro, at GII ProPol [8] (30 µM inhibitor) and at GII ProPol [8] (normalized to 0-µM inhibitor control) were “did not affect protease activity to a level of significance”, “observable decrease in ProPol activity” and “did not affect protease activity to a level of significance”, respectively.
On to poly(A), for which, on GII ProPol [7] (setting [16]), the “Km poly(A)” value is listed as 23.6 (19.0–29.3)^a ng/μL and the “kcat poly(A)” value is on record as 0.42 (0.39–0.45) s^−1.
Turning to poly(U), the “Km as estimated by half Vmax” value at GII ProPol [9] (GII ProPol with poly(U), allosteric sigmoidal model) is recorded as 6.8 ng/µL. Besides, the “Km poly(U)” value is listed as 29.6 (19.7–45.0) ng/μL on GII Pol [6] (setting [17]) and 7.9 (4.7–13.2)^a ng/μL on GII ProPol [7] (GII ProPol 1 µM, poly(U) 0 to 160 ng/µL, 0.5 mM ATP, 20 min, Michaelis-Menten). The “kcat poly(U)” value at GII Pol [6] (setting [17]) is reported as 1.4 (1.2–1.7) s^−1; on GII ProPol [7] (GII ProPol 1 µM, poly(U) 0 to 160 ng/µL, 0.5 mM ATP, 20 min), 1.9 (1.6–2.2) s^−1.
With `Nc1ncnc2c1ncn2[C@@H]1O[C@H](COP(=O)(O)OP(=O)(O)OP(=O)(O)O)[C@@H](O)[C@H]1O` [ATP], the Km at GII ProPol [9] (setting [18]) came out at 484 µM; at GII Pol [6] (GII Pol 2 µM, ATP 0 to 2000 µM, 80 ng/µL poly(U), read-out: Km ATP), 416 µM. In addition, the “kcat ATP” value is on record as 0.6 (0.5–0.7) s^−1 at GII ProPol [9] (setting [18]) and 0.3 (0.2–0.33) s^−1 on GII Pol [6] (GII Pol 2 µM, ATP 0 to 2000 µM, 80 ng/µL poly(U)).
On to `Cc1nc(/N=N/c2cc(S(=O)(=O)O)c3cc([N+](=O)[O-])cc(S(=O)(=O)O)c3c2)c(COP(=O)(O)O)c(C=O)c1O` [PPNDS, pyridoxal‐5′‐phosphate‐6‐(2′‐naphthylazo‐6′‐nitro‐4′,8′‐disulfonate) tetrasodium salt], for which the IC50 at GI ProPol [10] is 6.8 µM; at GII ProPol [1] it was 3.8 µM; at GI Pol [2] (GI Pol 75 nM, 6 ng/µL poly(C) template, 150 µM GTP), 3.4 µM; with GII Pol [11] it was 0.45 to 1.5 µM; on GII Pol [3], 0.5 µM.
Consider `Nc1nc2c(ncn2[C@@H]2O[C@H](COP(=O)(O)OP(=O)(O)OP(=O)(O)O)[C@@H](O)[C@H]2O)c(=O)[nH]1` [GTP], for which the Km at GI ProPol [4] (setting [19]) is 91.5 µM; at GI Pol [5] (setting [19]) it was 150 µM; at GII Pol [6] (GII Pol 35 nM, GTP 0 to 500 µM, 20 ng/µL poly(C), read-out: Km GTP), 80.3 µM; on GII ProPol [7] (GII ProPol 35 nM, GTP 0 to 500 µM, 20 ng/µL poly(C), read-out: Km GTP), 25.3 µM. Also, the “kcat GTP” value was 0.24 s⁻¹ at GI ProPol [4] (setting [19]); 1.7 (1.47–1.96) s^−1 on GI Pol [5] (setting [19]); 1.6 (1.40–1.96) s^−1 on GII Pol [6] (GII Pol 35 nM, GTP 0 to 500 µM, 20 ng/µL poly(C)); 0.78 (0.69–0.87) s^−1 at GII ProPol [7] (GII ProPol 35 nM, GTP 0 to 500 µM, 20 ng/µL poly(C)).

By IC50 is commonly meant the concentration that inhibits the measured activity by half. By Km is commonly meant the concentration of substrate that gives half-maximal velocity.

The values are drawn from article PMC11575396, “Activity and cryo-EM structure of the polymerase domain of the human norovirus ProPol precursor” (Journal of Virology, 2024).
